According to ChEMBL document CHEMBL1201862, “PubChem BioAssay data set” (2004):
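Where inhibition never reached the appropriate level, the endpoint shown equals the highest concentration tested. Otherwise, values were interpolated linearly from a five-concentration, 48-hour dose response in 96-well plates. At the GI50, growth is halved.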 Calls of active or inactive are those of the source. Rule as the data show it: active = GI50 up to about 1.1 µM and inactive = higher.

What was measured:
Test in all cases: NCI tumour cell line growth inhibition, 48 h
[1] = system: 786-0
[2] = system: ACHN
[3] = system: CCRF-CEM
[4] = system: COLO 205
[5] = system: EKVX
[6] = system: HL-60
[7] = system: HOP-62
[8] = system: HOP-92
[9] = system: HT-29
[10] = system: KM12
[11] = system: NCI-H522
[12] = system: NCI/ADR-RES
[13] = system: OVCAR-8
[14] = system: SK-MEL-2
[15] = system: SK-MEL-5
[16] = system: SNB-75
[17] = system: T47D
[18] = system: U-251
[19] = system: IGROV-1
[20] = system: Malme-3M

SMILES	GI50 [1]	GI50 [2]	GI50 [3]	GI50 [4]	GI50 [5]	GI50 [6]	GI50 [7]	GI50 [8]	GI50 [9]	GI50 [10]	GI50 [11]	GI50 [12]	GI50 [13]	GI50 [14]	GI50 [15]	GI50 [16]	GI50 [17]	GI50 [18]	GI50 [19]	GI50 [20]
Cc1cccc(/N=N/c2c(C)nn(C(=O)CC(=O)Nc3ccc(Cl)cc3)c2C)c1	82 µM (inactive)	60.5 µM (inactive)	32.4 µM (inactive)	> 100 µM (inactive)	13.4 µM (inactive)	36 µM (inactive)	37.1 µM (inactive)	21 µM (inactive)	> 100 µM (inactive)	> 100 µM (inactive)	53.3 µM (inactive)	> 100 µM (inactive)	> 100 µM (inactive)	67.5 µM (inactive)	> 100 µM (inactive)	9.51 µM (inactive)	64.3 µM (inactive)	61.5 µM (inactive)		
CN1C(=O)C(c2c[nH]c3ccccc23)N(C)C(=O)C1c1c[nH]c2ccccc12 (stereo not given)	53.2 µM (inactive)	72.8 µM (inactive)	> 100 µM (inactive)	> 100 µM (inactive)	> 100 µM (inactive)	> 100 µM (inactive)	63.4 µM (inactive)	37.2 µM (inactive)	> 100 µM (inactive)	> 100 µM (inactive)	> 100 µM (inactive)	> 100 µM (inactive)	> 100 µM (inactive)		> 100 µM (inactive)	33.8 µM (inactive)	> 100 µM (inactive)	> 100 µM (inactive)	> 100 µM (inactive)	> 100 µM (inactive)
COC(=O)C1C(=O)C=CN([C@H](C)c2ccccc2)[C@@H]1Cc1ccc(OC)c(OCc2ccccc2)c1I (stereo not given in full)	16.4 µM (inactive)	23.2 µM (inactive)	24.5 µM (inactive)	14.9 µM (inactive)	23.6 µM (inactive)	17.3 µM (inactive)	20.4 µM (inactive)	3.3 µM (inactive)	10 µM (inactive)	19.2 µM (inactive)	13.6 µM (inactive)	11.1 µM (inactive)	18.3 µM (inactive)	18.9 µM (inactive)	13.5 µM (inactive)		13.8 µM (inactive)	17.5 µM (inactive)	10.2 µM (inactive)	24.4 µM (inactive)
CCC1CC2CN3CCc4c([nH]c5c(-c6c(OC)ccc7c8c([nH]c67)[C@]6(C(=O)OC)CC7CC(CC)C6N(CC8)C7)c(O)ccc45)[C@](C(=O)OC)(C2)C13 (stereo not given in full)	12.6 µM (inactive)	19.6 µM (inactive)	15.3 µM (inactive)	11.4 µM (inactive)	17.1 µM (inactive)		15.2 µM (inactive)	12.9 µM (inactive)	5.37 µM (inactive)	12.4 µM (inactive)	15.7 µM (inactive)	20.4 µM (inactive)	20.5 µM (inactive)	20.9 µM (inactive)	13.6 µM (inactive)	14.8 µM (inactive)	11.1 µM (inactive)	12.9 µM (inactive)	14 µM (inactive)	> 10 µM (inactive)
Oc1c(Cl)c(Cl)c(O)c(CCNc2ccc3ncccc3c2)c1Cl	16.5 µM (inactive)	13.7 µM (inactive)		6.55 µM (inactive)	16.7 µM (inactive)	5.07 µM (inactive)	12.5 µM (inactive)	30.5 µM (inactive)	30.1 µM (inactive)	3.91 µM (inactive)	2.17 µM (inactive)	12.2 µM (inactive)	12.1 µM (inactive)	6.32 µM (inactive)	1.88 µM (inactive)	16.1 µM (inactive)	11 µM (inactive)	8.87 µM (inactive)	5 µM (inactive)	18.6 µM (inactive)
Nc1ccc2c(c1)C(=O)c1ccc(F)cc1-2	> 100 µM (inactive)	> 100 µM (inactive)	> 100 µM (inactive)	> 100 µM (inactive)	72.4 µM (inactive)	> 100 µM (inactive)	> 100 µM (inactive)	> 100 µM (inactive)	> 100 µM (inactive)	> 100 µM (inactive)	> 100 µM (inactive)	> 100 µM (inactive)	> 100 µM (inactive)	> 100 µM (inactive)	> 100 µM (inactive)	> 100 µM (inactive)	> 100 µM (inactive)	40.8 µM (inactive)	> 100 µM (inactive)	
Cc1c(C)c2c(c(N)c1C#N)C(=O)N(CCN1CCNCC1)C2=O	25.4 µM (inactive)	25.6 µM (inactive)	33.4 µM (inactive)	22.5 µM (inactive)	39 µM (inactive)	28.4 µM (inactive)		25.2 µM (inactive)		45.4 µM (inactive)	17.9 µM (inactive)	33.4 µM (inactive)	30.8 µM (inactive)	35.9 µM (inactive)	> 10 µM (inactive)	26.2 µM (inactive)	36.4 µM (inactive)	43.7 µM (inactive)	34.7 µM (inactive)	22.6 µM (inactive)
O=C(c1ccccc1)c1ccc2c(c1)nc1n2C(c2c(Cl)cccc2Cl)SC1 (stereo not given)	72.6 µM (inactive)	71.6 µM (inactive)		45.6 µM (inactive)	50.4 µM (inactive)	39.4 µM (inactive)	> 100 µM (inactive)	69 µM (inactive)	56.1 µM (inactive)	19.9 µM (inactive)	55.8 µM (inactive)	40.3 µM (inactive)	63.7 µM (inactive)	> 100 µM (inactive)	27.5 µM (inactive)	28.4 µM (inactive)	14.7 µM (inactive)	69.5 µM (inactive)	> 100 µM (inactive)	97.5 µM (inactive)
NCC(O)CNCC/C=C\C/C=C\C/C=C\C/C=C\C/C=C\C/C=C\CCCCC/C=C\CCNCC(O)CN (stereo not given)	1.69 µM (inactive)	1.8 µM (inactive)		1.96 µM (inactive)	0.731 µM (active)	0.453 µM (active)	1.97 µM (inactive)	2.01 µM (inactive)	1.75 µM (inactive)	1.58 µM (inactive)	1.53 µM (inactive)	1.47 µM (inactive)	1.78 µM (inactive)	1.81 µM (inactive)		1.73 µM (inactive)	2 µM (inactive)	1.72 µM (inactive)	1.71 µM (inactive)	1.94 µM (inactive)
CC1=NN(c2cccc(Cl)c2)C2(SCC(=O)N2c2nc3ccccc3s2)/C1=C\c1ccccc1 (stereo not given)	16.6 µM (inactive)	19.6 µM (inactive)	28.2 µM (inactive)		36.4 µM (inactive)	30.1 µM (inactive)	22.3 µM (inactive)	7.21 µM (inactive)	21 µM (inactive)	16.1 µM (inactive)	14.6 µM (inactive)	24.9 µM (inactive)	19.5 µM (inactive)	22.5 µM (inactive)	12.6 µM (inactive)	86.5 µM (inactive)	27.1 µM (inactive)	19.7 µM (inactive)	17.9 µM (inactive)	
O=S(=O)(N/C(=N\O)Nc1ccc(Cl)cc1)c1ccc(S(=O)(=O)c2ccccc2)s1	29.7 µM (inactive)	20 µM (inactive)	19.1 µM (inactive)	15.7 µM (inactive)	18.8 µM (inactive)	27.4 µM (inactive)	26.5 µM (inactive)	6.92 µM (inactive)	22.3 µM (inactive)	20.6 µM (inactive)	16.9 µM (inactive)	27.5 µM (inactive)	24.3 µM (inactive)	17.9 µM (inactive)	11.2 µM (inactive)		15.8 µM (inactive)	20.8 µM (inactive)	15.2 µM (inactive)	19.4 µM (inactive)
